The values that follow come from patent US20250320203A1, “4-(3H-PYRAZOLO[4,3-F]QUINOLIN-7-YL)-N-(2-(DIMETHYLAMINO)ETHYL)BENZAMIDE- OR HYDROXAMIC ACID COMPOUNDS, COMPOSITIONS, AND METHODS OF USE” (Purdue Research Foundation, priority 2022, published 2025).

One assay concerns the target T1, haspin (Homo sapiens, UniProt Q8TF76).
T1 sequence (Q8TF76 1-798): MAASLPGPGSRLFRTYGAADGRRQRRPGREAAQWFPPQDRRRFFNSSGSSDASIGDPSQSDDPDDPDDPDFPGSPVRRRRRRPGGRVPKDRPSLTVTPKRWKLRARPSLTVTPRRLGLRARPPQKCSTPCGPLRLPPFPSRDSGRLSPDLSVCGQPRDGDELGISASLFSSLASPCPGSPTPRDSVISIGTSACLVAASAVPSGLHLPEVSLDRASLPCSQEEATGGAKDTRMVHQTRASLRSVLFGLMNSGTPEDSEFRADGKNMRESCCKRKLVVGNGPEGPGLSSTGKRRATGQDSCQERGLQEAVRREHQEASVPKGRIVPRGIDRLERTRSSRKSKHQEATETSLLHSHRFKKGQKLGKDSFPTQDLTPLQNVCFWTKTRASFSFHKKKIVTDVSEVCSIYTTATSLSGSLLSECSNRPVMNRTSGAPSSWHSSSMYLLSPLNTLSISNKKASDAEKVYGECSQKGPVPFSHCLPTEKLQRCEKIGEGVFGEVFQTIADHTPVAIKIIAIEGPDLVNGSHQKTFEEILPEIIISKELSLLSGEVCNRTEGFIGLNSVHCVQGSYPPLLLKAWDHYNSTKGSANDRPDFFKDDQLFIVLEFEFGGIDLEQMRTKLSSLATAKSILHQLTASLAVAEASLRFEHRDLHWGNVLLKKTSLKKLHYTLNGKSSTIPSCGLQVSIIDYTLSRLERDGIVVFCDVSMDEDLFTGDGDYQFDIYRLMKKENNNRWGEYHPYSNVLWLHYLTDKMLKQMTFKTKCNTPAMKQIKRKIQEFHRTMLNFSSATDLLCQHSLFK
The assay can be described thus: Haspin binding Kd (Eurofins). On the set-up: purchased Eurofins (contract research service).

The next assay concerns Molm-14 cells (FLT3-ITD). The assay can be described thus: AML cell line growth inhibition (CellTiter-Blue), 50 nM. The class given is cell-based. The settings on record: Homo sapiens, 50 nM inhibitor conc., means of triplicates, read-out: Percent Inhibition (%) Molm-14 growth. The method, then:
With the amide kinase inhibitor library established, kinase inhibition and AML cell line (Molm-14, which harbors FLT3-ITD) growth inhibition were analyzed (Table 1). More specifically, Haspin and FLT3 inhibition were evaluated in-house via ADP Glo Kinase Assay (Promega, Madison, WI). […] Values reported are means of triplicates.
(§1) More specifically, cells were cultured to confluence in RPMI medium supplemented with 10% fetal bovine serum and 1× Penicillin-Streptomycin (Gibco™). Cells were plated at 5,000 cells/well in 96 well plates. After 24-hour incubation at 37° C. in a 5% CO2 incubator, compounds diluted in the same media were added to the indicated final concentration and allowed to incubate at 37° C. in a 5% CO2 incubator for 72 hours. Viability was determined using CellTiter-Blue® Cell Viability Assay (Promega, Madison, WI) with absorbance readings at 570 nm performed on a Cytation™ 5 Cell Imaging Multi-Mode Reader (BioTek) 3 hours after addition. Appropriate vehicle and cell-free controls were included. GI50 readings were confirmed by two scientists on two separate days.

The next assay concerns Molm-14-ITD-F691L. The assay can be described thus: Cell viability GI50, Molm-14-ITD-F691L. Format: cell-based. The settings on record: Homo sapiens; 72 hours. The method, then: as §1
(§2) Scholl et al. (2020), supra. Accordingly, Compound HSK205 was evaluated against Molm-14 cell lines that harbor resistant mutations commonly found in the clinic, FLT3-ITD-D835Y and F691L (FIG. 15).

The test system of the next assay is Molm 14-ITD-D835Y. The assay is described as follows: Cell viability GI50, Molm 14-ITD-D835Y. The settings on record: Homo sapiens; 72 hours. Format: cell-based. The method, then: as §1, §2

With `Cc1c[nH]c(CNC(=O)c2ccc(-c3nc4ccc5[nH]ncc5c4c4c3CCCC4)cc2)n1` [Compound HSK205], on haspin, the equilibrium dissociation constant (Kd) was 0.55 nM. For the same compound, the inhibition at 0.05 µM in the assay with Molm-14 cells (FLT3-ITD) was 96%. Moreover, the GI50 with Molm-14-ITD-F691L worked out at 2.2 nM; with Molm 14-ITD-D835Y it was 4.3 nM.

One may read the Kd as the constant that tells how readily two partners part at equilibrium. What is called inhibition is how much of the control response was suppressed. The GI50 is the concentration that inhibits growth by half. Low readings indicate greater sensitivity of the cells, high ones lower sensitivity of the cells.
